Patent publication US10512648B2, “Tyrosine kinase inhibitors for use in a method of treating cancer in association with a reduced caloric intake” (UNIVERSITÀ DEGLI STUDI DI GENOVA, priority 2014, dated 2019)

Tests used:
H3122 xenografts = assay: H3122 xenograft growth in mice; assay type: in vivo, BALB/c athymic mice (nu+/nu+)
Description: With reference to FIG. 2A, six- to eight-week-old BALB/c athymic mice (nu+/nu+) were injected s.c. with 5×10^6 H3122 cells. When tumors became palpable, mouse were randomly assigned to one of four arms (six mice per treatment arm): control—normal diet (—); Crizotinib—normal diet with 3 cycles of Crizotinib (25 mg/kg/day via oral gavage for 5 days a week, Mon-Fri); STS [fasting (water only) for 48 h (Sun-Tue) for three cycles at 1-week intervals]; STS+Crizotinib. Tumor size was measured daily and tumor volume was calculated using the formula: tumor volume=(w^2×W)×π/6, where “w” and “W” are “minor side” and “major side” (in mm), respectively. At the end of treatment, mice were euthanized and tumor masses were excised and weighted (see FIG. 2B). Mouse weight was also monitored daily.

H3122 cells [1] = assay: viability of H3122 cells, sulforodhamine B-based assay, regular medium (CTR) vs STS conditions; assay type: cell-based; details: H3122 NSCLC cells (EML4-ALK translocation); low glucose 0.5 g/L, 1% FBS (STS) vs regular medium; 72 h
Description: With reference to FIGS. 1A and 1B, 3×10^3 H3122 cells were plated in 96 well plates in regular DMEM medium containing 10% FBS. 24 h later, the cell medium was removed and cells were incubated for 24 h either in the same medium (CTR) or in low-glucose (0.5 g/L) DMEM medium containing 1% FBS (STS). 24 h later cells were treated or not with the indicated concentrations of Crizotinib or […] (TAE). 72 h later, viability was measured with sulforodhamine B-based assays.

H3122 cells [2] = assay: H3122 cells in Petri dishes, sulforodhamine B staining after treatment and recovery; assay type: cell-based; details: H3122, STS conditions, 400 nM, 5 days then 2 days regular medium (FIG. 1C)
Description: With reference to FIG. 1C, 10^5 H3122 cells were plated in 60 mm Petri dishes in regular DMEM medium. 24 h later, the cell medium was removed and cells were incubated for 24 h either in regular medium (CTR) or in STS conditions. 24 h later 400 nM Crizotinib was added (or not) to the cells. 5 days later, the cell medium was removed and the cells were cultured for two additional days in regular DMEM medium. 48 h later, the plates were stained with sulforodhamine B and photographed.

[3] = system: phospho-ERK (Thr202/Tyr204); assay: immunoblotting of phospho-ERK and total ERK in H3122 cell lysates; assay type: cell-based; details: H3122, 400 nM, 24 h; starved cells compared with cells in standard conditions
Description: With reference to FIG. 1E, 10^5 H3122 cells were plated in 6 well plates in regular DMEM medium containing 10% FBS. 24 h later, the cell medium was removed and cells were incubated for 24 h either in the same medium (CTR) or in low-glucose (0.5 g/L) DMEM containing 1% FBS (STS). 24 h later cells were treated or not with 400 nM Crizotinib. After 24 h, cell were used for cell lysate preparation and phospho-ERK (Thr202/Tyr204), and total ERK levels were detected by immunoblotting.

A549 cells = assay: viability of A549 cells, sulforodhamine B-based assay, with or without STS; assay type: cell-based
Description: With reference to FIG. 1D, 3×10^3 A549 cells were plated in 96 well plates and treated with Crizotinib in the presence or absence of STS, as in the experiments of FIGS. 1A and 1B, before viability was measured in sulforodhamine B-based assays.

[4] = system: H3122 cells engineered to overexpress HRAS or HRAS V12; assay: sensitivity of H3122 cells engineered to overexpress HRAS or HRAS V12; assay type: cell-based; details: data not shown
BT474 cells = assay: viability of BT474 cells, sulforodhamine B-based assay, CTR vs STS; assay type: cell-based; details: BT474 HER2+ BC cells, 100 nM, 72 h
SKBR3 cells = assay: viability of SKBR3 cells, sulforodhamine B-based assay, CTR vs STS; assay type: cell-based; details: SKBR3 HER2+ BC cells, 100 nM, 72 h
Description: With reference to FIGS. 3A and 3B, 3×10^3 SKBR3 (FIG. 3A) or BT474 (FIG. 3B) cells/well were plated in 96 well plates in regular DMEM medium containing 10% FBS and 2.5 g/L glucose. 24 h later, the cell medium was removed and cells were incubated for 24 h either in the same medium (CTR) or in low-glucose (0.5 g/L) DMEM medium containing 1% FBS (STS). 24 h later cells were treated or not with 100 nM Lapatinib. 72 h later, viability was measured in sulforodhamine B-based assays.
With reference to FIGS. 3D and 3E, BT474 or MCF7 cells were plated as detailed with regard to FIGS. 3A and 3B, treated with 100 nM CP724714 (FIG. 3D) or Lapatinib (FIG. 3E) with or without STS conditions as detailed with respect to FIGS. 3A and 3B before viability was detected.

AKT and ERK1/2 signaling [5] = assay: immunoblotting of phospho-AKT, total AKT, phospho-ERK and total ERK in BT474 cell lysates; assay type: cell-based; details: BT474, 100 nM, 24 h; STS-mimicking conditions compared with Lapatinib alone (FIG. 4B)
Description: (§1) With reference to FIGS. 4A-C, 10^5 SKBR3 (FIG. 4A) or BT474 (FIG. 4B) cells were plated in 6 well plates in regular DMEM medium containing 10% FBS. 24 h later, the cell medium was removed and cells were incubated for 24 h either in the same medium (CTR) or in low-glucose (0.5 g/L) DMEM medium containing 1% FBS (STS). 24 h later cells were treated or not with 100 nM Lapatinib. After 24 h, cell were either used for cell lysate preparation or for flow cytometry assays. Cell lysates were used for phospho-AKT (Ser473), total AKT, phospho-ERK (Thr202/Tyr204), and total ERK level detection by immunoblotting (FIGS. 4A and 4B). Flow cytometry (with a FACS Calibur, BD) was used to estimate cell size (FSC) by acquiring 10,000 events per cell sample (FIG. 4C).

MCF7 cells = assay: viability of MCF7 cells, with or without STS conditions; assay type: cell-based
AKT and ERK1/2 signaling [6] = assay: immunoblotting of phospho-AKT, total AKT, phospho-ERK and total ERK in SKBR3 cell lysates; assay type: cell-based; details: SKBR3, 100 nM, 24 h; STS-mimicking conditions compared with Lapatinib alone (FIG. 4A)
Description: as §1

## C[C@@H](Oc1cc(-c2cnn(C3CCNCC3)c2)cnc1N)c1c(Cl)ccc(F)c1Cl [Crizotinib]
H3122 xenografts; 25 mg/kg/day oral gavage plus 48 h fasting cycles, compared with each treatment alone, p<0.05
  activity on H3122 xenografts of the combination with fasting: more active than either type of treatment alone
H3122 xenografts; normal diet, 25 mg/kg/day oral gavage, 5 days a week, 3 cycles
  growth of H3122 xenografts: effectively reduced the growth
H3122 cells [1]
  effect of STS conditions on activity (viability of H3122 cells): strongly potentiated
H3122 cells [2]
  killing of NSCLC cells: virtual complete killing
[3]
  blocking of MAPK pathway signaling (ERK1/2 phosphorylation): more effective at blocking signaling through the MAPK pathway
A549 cells; A549 NSCLC cells without EML4-ALK translocation
  sensitivity of A549 cells (viability): insensitive
A549 cells; A549 cells, STS vs regular medium
  effect of STS on activity in A549 cells: did not increase the activity
[4]
  sensitivity of HRAS or HRAS V12 overexpressing H3122 cells: resistant

## CS(=O)(=O)CCNCc1ccc(-c2ccc3ncnc(Nc4ccc(OCc5cccc(F)c5)c(Cl)c4)c3c2)o1 [Lapatinib]
BT474 cells
  sensitization by STS conditions (viability of BT474 cells): strongly sensitized
SKBR3 cells
  sensitization by STS conditions (viability of SKBR3 cells): strongly sensitized
AKT and ERK1/2 signaling [5]
  inhibition of AKT and ERK1/2 signaling: more pronounced inhibition
MCF7 cells; MCF7 cells without HER2 amplification, 100 nM
  sensitivity of MCF7 cells (viability): insensitive
MCF7 cells; MCF7 cells, STS vs CTR
  effect of STS on activity in MCF7 cells: failed to enhance the activity
AKT and ERK1/2 signaling [6]
  inhibition of AKT and ERK1/2 signaling: more pronounced inhibition

## COc1cc(N2CCC(N3CCN(C)CC3)CC2)ccc1Nc1ncc(Cl)c(Nc2ccccc2S(=O)(=O)C(C)C)n1 [TAE684]
H3122 cells [1]
  effect of STS conditions on activity (viability of H3122 cells): strongly potentiated
